# From ChEMBL document CHEMBL1143993, “Synthesis and structure-activity relationships of a series of substituted 2-(1H-furo[2,3-g]indazol-1-yl)ethylamine derivatives as 5-HT2C receptor agonists” (Bioorg Med Chem, 2008)
# What was measured:
# [1] = target: T1, 5-hydroxytryptamine receptor 2A (Homo sapiens, UniProt P28223); assay: Displacement of [3H]5-HT from human 5HT2A receptor expressed in CHO cells; format: cell-based
# [2] = target: Serotonin 2 receptors; 5-HT2a & 5-HT2c (Homo sapiens) (UniProt P28223+P28335); assay: Selectivity for human 5HT2A to human 5HT2C
# Sequence of Serotonin 2 receptors; 5-HT2a & 5-HT2c (Homo sapiens) (P28223 whole entry, looked up, one chain of several): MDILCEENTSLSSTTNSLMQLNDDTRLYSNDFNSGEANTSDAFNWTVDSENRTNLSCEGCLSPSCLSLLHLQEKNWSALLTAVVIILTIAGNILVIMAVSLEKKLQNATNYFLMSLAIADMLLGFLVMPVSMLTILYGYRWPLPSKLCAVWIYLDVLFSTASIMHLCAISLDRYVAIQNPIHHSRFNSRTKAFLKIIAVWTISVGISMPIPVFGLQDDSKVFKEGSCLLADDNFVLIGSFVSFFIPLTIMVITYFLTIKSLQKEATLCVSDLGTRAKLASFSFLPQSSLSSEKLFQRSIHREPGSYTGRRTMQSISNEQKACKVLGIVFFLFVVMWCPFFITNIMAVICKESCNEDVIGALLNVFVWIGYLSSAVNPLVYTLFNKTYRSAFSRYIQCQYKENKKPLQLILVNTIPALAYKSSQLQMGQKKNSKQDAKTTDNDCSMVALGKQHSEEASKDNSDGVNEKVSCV
# [3] = target: T2, 5-hydroxytryptamine receptor 2C (Homo sapiens, UniProt P28335); assay: Displacement of [3H]5-HT from human 5HT2C receptor expressed in CHO cells; format: cell-based
# T2 sequence (P28335 whole entry): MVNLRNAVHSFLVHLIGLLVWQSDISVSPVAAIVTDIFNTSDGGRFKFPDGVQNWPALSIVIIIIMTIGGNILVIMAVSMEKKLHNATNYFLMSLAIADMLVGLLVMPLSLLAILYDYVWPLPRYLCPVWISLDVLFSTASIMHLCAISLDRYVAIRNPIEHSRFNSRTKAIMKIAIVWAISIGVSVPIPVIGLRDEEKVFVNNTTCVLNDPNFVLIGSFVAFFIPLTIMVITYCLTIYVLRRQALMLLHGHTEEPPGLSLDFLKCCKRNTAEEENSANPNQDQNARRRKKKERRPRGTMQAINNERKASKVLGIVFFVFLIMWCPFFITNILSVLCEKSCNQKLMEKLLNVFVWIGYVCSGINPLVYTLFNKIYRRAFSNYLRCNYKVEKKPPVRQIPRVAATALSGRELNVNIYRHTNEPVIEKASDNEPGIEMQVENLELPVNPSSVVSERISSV
# Rattus norvegicus [4] = assay: Induction of penile erection in sc dosed rat; format: functional; settings: read-out: MED
# [5] = target: T2, 5-hydroxytryptamine receptor 2C; assay: Agonist activity at human cloned 5HT2C receptor expressed in CHO cells assessed as myo-[3H]inositol hydrolysis; format: functional, cell-based
# [6] = target: T3, 5-hydroxytryptamine receptor 2C (Homo sapiens) (UniProt P28335); assay: Intrinsic activity at human cloned 5HT2C receptor expressed in CHO cells assessed as maximal stimulation of 10 uM 5HT-induced myo-[3H]inositol hydrolysis; format: functional, cell-based
# T3 sequence (whole entry): T2 sequence (P28335 whole entry)
# [7] = target: T1, 5-hydroxytryptamine receptor 2A; assay: Agonist activity at human cloned 5HT2A receptor expressed in CHO cells assessed as myo-[3H]inositol hydrolysis; format: functional, cell-based
# Rattus norvegicus [8] = assay: Induction of penile erection in po dosed rat; format: functional; settings: read-out: MED
# [9] = target: T4, 5-hydroxytryptamine receptor 2B (Homo sapiens, UniProt P41595); assay: Intrinsic activity at human cloned 5HT2B receptor expressed in HEK293-EBNA cells assessed as maximal stimulation of 10 uM 5HT-induced myo-[3H]inositol hydrolysis; format: functional, cell-based
# T4 sequence (P41595 whole entry): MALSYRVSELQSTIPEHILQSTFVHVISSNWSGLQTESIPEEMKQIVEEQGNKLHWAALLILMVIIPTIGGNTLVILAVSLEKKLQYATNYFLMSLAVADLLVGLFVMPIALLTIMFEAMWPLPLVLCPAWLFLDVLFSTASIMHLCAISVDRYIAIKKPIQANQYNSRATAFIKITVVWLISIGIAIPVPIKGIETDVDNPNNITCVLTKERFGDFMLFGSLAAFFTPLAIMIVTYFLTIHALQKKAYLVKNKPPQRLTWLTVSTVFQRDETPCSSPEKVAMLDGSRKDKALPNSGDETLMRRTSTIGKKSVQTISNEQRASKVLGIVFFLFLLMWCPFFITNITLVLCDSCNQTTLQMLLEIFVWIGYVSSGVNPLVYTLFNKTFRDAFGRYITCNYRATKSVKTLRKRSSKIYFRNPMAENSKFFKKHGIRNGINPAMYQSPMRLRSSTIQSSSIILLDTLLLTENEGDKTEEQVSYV
# [10] = target: T4, 5-hydroxytryptamine receptor 2B
# Description: Agonist activity at human cloned 5HT2B receptor expressed in HEK293-EBNA cells assessed as myo-[3H]inositol hydrolysis
# [11] = target: T1, 5-hydroxytryptamine receptor 2A; assay: Intrinsic activity at human cloned 5HT2A receptor expressed in CHO cells assessed as maximal stimulation of 10 uM 5HT-induced myo-[3H]inositol hydrolysis; format: functional, cell-based
# Homo sapiens = organism: Homo sapiens; assay: Selectivity ratio of EC50 for human cloned 5HT2B receptor over EC50 for human cloned 5HT2C receptor
# T1 sequence (P28223 whole entry): as the sequence (P28223 whole entry, looked up, one chain of several) above
SMILES,Ki [1] [nM],Ratio Ki [2],Ki [3] [nM],also measured
C[C@H](N)Cn1ncc2cc(Cl)c(Cl)cc21,11,1,7.5,–
CCCc1nn(C[C@H](C)N)c2c1ccc1occc12,64,3,25,–
C[C@H](N)Cn1ncc2ccc(Cl)c(Cl)c21,9.1,2,4,–
C[C@H](N)Cn1ncc2cc(F)ccc21,89,2,43,–
Cc1nn(C[C@H](C)N)c2c1ccc1occc12,17,1,13,–
COc1ccc2cnn(C[C@H](C)N)c2c1Cl,1200,9,140,–
CC(C)c1cc2c(ccc3cnn(C[C@H](C)N)c32)o1,87,4,20,–
CCc1cc2c(ccc3cnn(C[C@H](C)N)c32)o1,13,15,0.89,minimal effective dose (Rattus norvegicus [4]): 0.03 mg/kg; EC50 [5]: 1 nM; Emax [6]: 76%; EC50 [7]: 93 nM; minimal effective dose (Rattus norvegicus [8]): 0.3 mg/kg; Emax [9]: 110%; EC50 [10]: 3.2 nM; Emax [11]: 97%; Ratio EC50 (Homo sapiens): 3.2
C[C@H](N)Cn1ncc2ccc3occc3c21,0.78,4,0.2,–
CCc1cc2c(ccc3c(C)nn(C[C@H](C)N)c32)o1,46,9,5,–
C[C@H](N)Cn1ncc2ccc(F)cc21,82,3,32,–
CCc1cc2c(ccc3c(CC)nn(C[C@H](C)N)c32)o1,51,19,2.7,–
COc1ccc2cnn(C[C@H](C)N)c2c1,37,2,16,–
CCc1cc2c(ccc3c(OC)nn(C[C@H](C)N)c32)o1,38,3,12,–
COc1nn(C[C@H](C)N)c2c1ccc1occc12,–,17,0.51,minimal effective dose (Rattus norvegicus [4]): 0.1 mg/kg
C[C@H](N)Cn1ncc2ccc3ocnc3c21,47,1,59,–
CCc1nn(C[C@H](C)N)c2c1ccc1occc12,11,4,2.5,–
Cc1cc2c(ccc3cnn(C[C@H](C)N)c32)o1,0.78,4,0.2,–
C[C@H](N)Cn1ccc2cc(F)c(Cl)cc21,39,2,26,minimal effective dose (Rattus norvegicus [4]): 0.3 mg/kg; EC50 [5]: 52 nM; Emax [6]: 88%; EC50 [7]: 400 nM; Emax [9]: 130%; EC50 [10]: 2.4 nM; Emax [11]: 91%; Ratio EC50 (Homo sapiens): 0.05
C[C@H](N)Cn1ncc2ccc3sccc3c21,6.7,5,1.4,–
